Assay results as given in the supplement of paper PMC10307832.

Key:
Assay in all cases: relative viability (nuclei count vs DMSO), 5 days (fraction); higher = more cells survive
[1] = compound: C1CNCCC1C2=CC(=NN2)C3=CC=NC=C3 + CC1(C)CCC(c2ccc(Cl)cc2)=C(CN2CCN(c3ccc(C(=O)NS(=O)(=O)c4ccc(N[C@H](CCN5CCOCC5)CSc5ccccc5)c(S(=O)(=O)C(F)(F)F)c4)cc3)CC2)C1 [Navitoclax] (partner 0.5 µM)
Summary of the method: (§1)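 Cells from lung cancer lines were seeded into 1536-well plates and, one day later, dosed by pin tool. Treatments were either a single drug or a fixed dose of an anchor drug with five library-drug doses (not always all listed) in √10 steps. After 5 days, nuclei were stained in a one-step fixation (final 0.05% Triton X-100, 1% formaldehyde, 1 ug/ml Hoechst) and counted on 4× images, and relative viability is the treated-to-vehicle nuclei ratio, as the median of duplicate plates.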

[2] = compound: C1CNCCC1C2=CC(=NN2)C3=CC=NC=C3 + CS(=O)(=O)CCNCc1ccc(-c2ccc3ncnc(Nc4ccc(OCc5cccc(F)c5)c(Cl)c4)c3c2)o1 [Lapatinib] (partner 2 µM)
Summary of the method: as §1

[3] = compound: C[C@@H](N)c1ccc(C(=O)Nc2ccnc3[nH]ccc23)cc1 + CC(C)C[C@H](NC(=O)[C@H](Cc1ccccc1)NC(=O)c1cnccn1)B(O)O [Bortezomib] (partner 0.002 µM)
Summary of the method: as §1

[4] = compound: C[C@@H](N)c1ccc(C(=O)Nc2ccnc3[nH]ccc23)cc1 + C[C@]1(O)C[C@@H](c2nc(-c3ccc4ccc(-c5ccccc5)nc4c3)c3c(N)nccn32)C1 [Linsitinib] (partner 1 µM)
Summary of the method: as §1

Row | Cell Line | relative viability ([1]; first compound 0.08 µM) | relative viability ([1]; first compound 0.8 µM) | relative viability ([1]; first compound 2.53 µM) | relative viability ([1]; first compound 8 µM) | relative viability ([2]; first compound 0.08 µM) | relative viability ([2]; first compound 0.8 µM) | relative viability ([2]; first compound 2.53 µM) | relative viability ([2]; first compound 8 µM) | relative viability ([3]; first compound 0.04 µM) | relative viability ([3]; first compound 0.1265 µM) | relative viability ([3]; first compound 0.4 µM) | relative viability ([3]; first compound 4 µM) | relative viability ([4]; first compound 0.04 µM) | relative viability ([4]; first compound 0.1265 µM) | relative viability ([4]; first compound 0.4 µM) | relative viability ([4]; first compound 4 µM) | relative viability ([3]; first compound 1.265 µM) | relative viability ([4]; first compound 1.265 µM)
1 | NCI-H1703 | 1.08 | 1.59 | 1.15 | 1.35 | 1.03 | 1.51 | 1.12 | 1.03 | 0.376 | 0.281 | 0.256 | 0.236 | 0.695 | 0.964 | 0.54 | 0.536 |  | 
2 | NCI-H727 | 0.411 | 0.459 | 0.623 | 0.67 | 0.717 | 0.847 | 1.01 | 0.981 | 1.09 | 1.05 | 1.38 | 1.12 | 0.135 | 0.559 | 0.493 | 0.785 | 0.67 | 0.736
3 | NCI-H1792 | 0.611 | 0.679 | 0.639 | 0.589 | 0.893 | 0.851 | 0.913 | 0.788 | 0.955 | 0.983 | 1.02 | 0.797 | 0.631 | 0.475 | 0.558 | 0.572 | 1.03 | 0.676
4 | COR-L23 | 0.905 | 1.3 | 1.1 | 1.03 | 0.989 | 1.3 | 0.98 | 1.01 | 0.827 | 0.983 | 1.03 | 0.341 | 0.968 | 0.925 | 0.874 | 0.442 | 0.779 | 0.744
5 | HOP-62 | 1.06 | 1.21 | 1.13 | 1.03 | 1.09 | 1.17 | 1.1 | 1.12 | 0.983 | 0.62 | 0.675 | 0.922 | 0.972 | 0.983 | 0.88 | 0.954 | 0.49 | 1.03
6 | NCI-H1915 | 0.798 | 0.784 | 0.78 | 0.778 | 0.964 | 1.09 | 1.02 | 0.946 | 0.988 | 1.01 | 1.01 | 0.823 | 1.1 | 1.13 | 1.12 | 1.03 |  | 
7 | BEN | 0.0512 | 0.0642 | 0.0601 | 0.0843 | 0.594 | 0.571 | 0.939 | 0.761 | 0.765 | 0.736 | 0.875 | 0.457 | 0.981 | 0.86 | 0.991 | 0.636 | 0.909 | 1.02
8 | NCI-H1437 | 1.06 | 1.11 | 1.1 | 1.12 | 0.765 | 0.912 | 0.827 | 0.769 | 0.623 | 0.53 | 0.563 | 0.555 | 1.14 | 1.04 | 1.07 | 0.897 | 0.427 | 1.14
